Results taken from ChEMBL document CHEMBL4616632, “Discovery of Cyclic Boronic Acid QPX7728, an Ultrabroad-Spectrum Inhibitor of Serine and Metallo-β-lactamases” (J Med Chem, 2020).

How the values were obtained:
Enterobacter cloacae = experiment: Inhibition of Enterobacter cloacae ECL1002 AmpC assessed as minimum concentration of compound needed to reduce the MIC of aztreonam to 4 ug/ml
Klebsiella pneumoniae [1] = experiment: Inhibition of Klebsiella pneumoniae KP1009 CTX-M-15 assessed as minimum concentration of compound required to reduce the MIC of aztreonam to 4 ug/ml
Pseudomonas aeruginosa [2] = experiment: Inhibition of Pseudomonas aeruginosa PAM 2035 AmpC assessed as minimum concentration of compound needed to reduce the MIC of aztreonam to 4 ug/ml
Escherichia coli [3] = experiment: Inhibition of Escherichia coli EC302 TEM-10 assessed as minimum concentration of compound needed to reduce the MIC of aztreonam to 4 ug/ml
Escherichia coli [4] = experiment: Inhibition of Escherichia coli EC308 SHV-5 assessed as minimum concentration of compound needed to reduce the MIC of aztreonam to 4 ug/ml
[5] = biological target: Beta-lactamase (Klebsiella pneumoniae) (UniProt Q93LQ9); experiment: Inhibition of Klebsiella pneumoniae KP1004 KPC-2 assessed as minimum concentration of compound needed to reduce the MIC of aztreonam to 4 ug/ml
Sequence of Beta-lactamase (Klebsiella pneumoniae) (Q93LQ9 as listed by the source): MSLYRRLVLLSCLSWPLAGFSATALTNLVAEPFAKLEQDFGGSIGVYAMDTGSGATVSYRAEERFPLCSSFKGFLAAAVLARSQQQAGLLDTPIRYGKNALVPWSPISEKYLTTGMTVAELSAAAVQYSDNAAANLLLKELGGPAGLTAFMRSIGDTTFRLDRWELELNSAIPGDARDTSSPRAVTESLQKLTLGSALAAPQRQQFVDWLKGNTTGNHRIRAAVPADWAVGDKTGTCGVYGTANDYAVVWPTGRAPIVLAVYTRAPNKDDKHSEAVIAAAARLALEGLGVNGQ

Pseudomonas aeruginosa [6] = experiment: Inhibition of Pseudomonas aeruginosa PAM 1154 KPC-2 assessed as assessed as minimum potentiating concentration of compound needed to reduce the MIC of biapenem by 64 fold
Pseudomonas aeruginosa [7] = experiment: Inhibition of Pseudomonas aeruginosa PAM 1032 KPC-2 assessed as minimum potentiating concentration of compound needed to reduce the MIC of biapenem by 64 fold
[8] = Ratio of inhibition of Pseudomonas aeruginosa PAM 1032 KPC-2 assessed as minimum potentiating concentration of compound needed to reduce the MIC of biapenem by 64 fold to inhibition of Pseudomonas aeruginosa PAM 1154 KPC-2 assessed as assessed as minimum potentiating concentration of compound needed to reduce the MIC of biapenem by 64 fold
Klebsiella pneumoniae [9] = experiment: Inhibition of Klebsiella pneumoniae KP1054 VIM-1 assessed as minimum concentration of compound required to reduce the MIC of biapenem to 1 ug/ml
Escherichia coli [10] = experiment: Inhibition of Escherichia coli ECM6625 SHV-5 assessed as minimum concentration of compound needed to reduce the MIC of aztreonam to 4 ug/ml
Escherichia coli [11] = experiment: Inhibition of Escherichia coli ECM6619 TEM-10 assessed as minimum concentration of compound needed to reduce the MIC of aztreonam to 4 ug/ml
Klebsiella pneumoniae [12] = experiment: Inhibition of Klebsiella pneumoniae KP1081 NDM-1 assessed as minimum concentration of compound required to reduce the MIC of biapenem to 1 ug/ml
Escherichia coli [13] = experiment: Inhibition of Escherichia coli KP308 SHV-5 assessed as minimum concentration of compound required to reduce the MIC of aztreonam to 4 ug/ml
[14] = biological target: Beta-lactamase OXA-23 (Acinetobacter baumannii) (UniProt Q9L4P2); experiment: Inhibition of Acinetobacter baumannii AB1054 OXA-23 assessed as minimum concentration of compound needed to reduce the MIC of meropenem to 8 ug/ml
Sequence of Beta-lactamase OXA-23 (Acinetobacter baumannii) (Q9L4P2 whole entry): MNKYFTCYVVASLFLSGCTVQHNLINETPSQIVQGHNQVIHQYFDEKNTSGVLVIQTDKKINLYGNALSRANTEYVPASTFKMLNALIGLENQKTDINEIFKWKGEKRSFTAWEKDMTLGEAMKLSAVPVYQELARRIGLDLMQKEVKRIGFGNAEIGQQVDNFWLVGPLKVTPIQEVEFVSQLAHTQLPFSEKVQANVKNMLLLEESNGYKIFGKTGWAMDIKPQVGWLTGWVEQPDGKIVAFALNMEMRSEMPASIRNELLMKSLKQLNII

Acinetobacter baumannii = experiment: Inhibition of Acinetobacter baumannii AB1053 OXA-72 assessed as minimum concentration of compound needed to reduce the MIC of meropenem to 8 ug/ml
Klebsiella pneumoniae [15] = experiment: Inhibition of Klebsiella pneumoniae KP1160 IMP-26 assessed as minimum concentration of compound needed to reduce the MIC of meropenem to 1 ug/ml

| Compound | MEC (Enterobacter cloacae) [µg/mL] | MEC (Klebsiella pneumoniae [1]) [µg/mL] | MEC (Pseudomonas aeruginosa [2]) [µg/mL] | MEC (Escherichia coli [3]) [µg/mL] | MEC (Escherichia coli [4]) [µg/mL] | MEC [5] [µg/mL] | Activity (Pseudomonas aeruginosa [6]) [µg/mL] | Activity (Pseudomonas aeruginosa [7]) [µg/mL] | Ratio [8] | MEC (Klebsiella pneumoniae [9]) [µg/mL] | MEC (Escherichia coli [10]) [µg/mL] | MEC (Escherichia coli [11]) [µg/mL] | MEC (Klebsiella pneumoniae [12]) [µg/mL] | MEC (Escherichia coli [13]) [µg/mL] | MEC [14] [µg/mL] | MEC (Acinetobacter baumannii) [µg/mL] | MEC (Klebsiella pneumoniae [15]) [µg/mL] |
| --- | --- | --- | --- | --- | --- | --- | --- | --- | --- | --- | --- | --- | --- | --- | --- | --- | --- |
| CSCC(=O)N[C@H]1Cc2ccc(Sc3nncn3C)c(C(=O)O)c2OB1O | 5 | 2.5 | > 20 | 2.5 | < 0.3 | 5 | – | – | – | – | – | – | – | – | – | – | – |
| COc1ccc2c(c1C(=O)O)OB(O)[C@@H](NC(=O)Cc1cccs1)C2 | – | – | – | – | – | – | 5 | 40 | 8 | – | – | – | – | – | – | – | – |
| CSCC(=O)N[C@H]1Cc2cccc(C(=O)O)c2OB1O | 0.6 | 0.6 | 2.5 | 5 | < 0.3 | 0.6 | 5 | 80 | 8 | – | – | – | – | – | – | – | – |
| O=C(CSC1CNC1)N[C@H]1Cc2ccc(F)c(C(=O)O)c2OB1O | – | – | – | – | – | – | 5 | 5 | 1 | – | – | – | – | – | – | – | – |
| CSCC(=O)N[C@H]1Cc2ccc(SCCO)c(C(=O)O)c2OB1O | 5 | 1.25 | > 20 | 1.25 | 0.04 | 2.5 | – | – | – | – | – | – | – | – | – | – | – |
| CSCC(=O)N[C@H]1Cc2ccc(SC)c(C(=O)O)c2OB1O | 1.25 | 0.6 | 20 | 1.25 | 0.04 | 0.6 | – | – | – | – | – | – | – | – | – | – | – |
| CSCC(=O)N[C@H]1Cc2ccc(OCCO)c(C(=O)O)c2OB1O | 5 | 1.25 | > 20 | 2.5 | < 0.3 | 1.25 | – | – | – | – | – | – | – | – | – | – | – |
| CSCC(=O)N[C@H]1Cc2ccc(Sc3nnc(N)s3)c(C(=O)O)c2OB1O | 2.5 | 2.5 | > 20 | 2.5 | < 0.3 | 5 | – | – | – | – | – | – | – | – | – | – | – |
| O=C(Cc1cccs1)N[C@H]1Cc2cccc(C(=O)O)c2OB1O | – | – | – | – | – | – | 2.5 | 80 | 32 | – | – | – | – | – | – | – | – |
| COc1ccc2c(c1C(=O)O)OB(O)C(F)=C2 | 0.3 | 1.25 | 5 | 1.25 | – | 0.16 | – | – | – | > 20 | 1.25 | 1.25 | 5 | 1.25 | 5 | 2.5 | 2.5 |
| O=C(O)c1cccc2c1OB(O)[C@H]1C[C@@H]21 | 10 | 10 | 2.5 | 5 | – | 0.16 | – | – | – | 10 | 5 | 5 | 1.25 | 5 | 20 | 20 | > 20 |
| CSCC(=O)N[C@H]1Cc2ccc(SC3CNC3)c(C(=O)O)c2OB1O | 10 | 0.6 | 20 | 5 | 0.6 | 1.25 | – | – | – | – | – | – | – | – | – | – | – |
| C[C@H]1Cc2cccc(C(=O)O)c2OB1O | 20 | > 20 | 1.25 | > 20 | – | 1.25 | – | – | – | 5 | 20 | > 20 | 1.25 | 20 | > 20 | > 20 | > 20 |
| COc1ccc2c(c1C(=O)O)OB(O)[C@@H](NC(=O)CSC1CNC1)C2 | – | – | – | – | – | – | 5 | 5 | 1 | – | – | – | – | – | – | – | – |
| CSCC(=O)N[C@H]1Cc2ccc(OCC(=O)O)c(C(=O)O)c2OB1O | 5 | 2.5 | > 20 | 5 | 0.08 | 5 | – | – | – | – | – | – | – | – | – | – | – |
| O=C(Cc1cccs1)N[C@H]1Cc2ccc(F)c(C(=O)O)c2OB1O | – | – | – | – | – | – | 10 | 40 | 4 | – | – | – | – | – | – | – | – |
| CSCC(=O)N[C@H]1Cc2ccc(SCC(N)=O)c(C(=O)O)c2OB1O | 2.5 | 0.6 | > 20 | 1.25 | 0.16 | 2.5 | – | – | – | – | – | – | – | – | – | – | – |
| COc1ccc2c(c1C(=O)O)OB(O)C1CCC21 (centres undefined) | 10 | 10 | 10 | 10 | – | 5 | – | – | – | 5 | 10 | 10 | 10 | 10 | 10 | 5 | 20 |
| O=C(O)c1c(F)ccc2c1OB(O)[C@H]1C[C@@H]21 | 2.5 | 1.25 | 5 | 1.25 | – | 0.3 | – | – | – | > 20 | 1.25 | 1.25 | 5 | 1.25 | 10 | 5 | > 20 |
| COc1ccc2c(c1C(=O)O)OB(O)C1CC21 (centres undefined) | 0.3 | 0.3 | 5 | 0.3 | – | 0.16 | – | – | – | 0.08 | 0.3 | 0.3 | 0.6 | 0.3 | 1.25 | 0.6 | 5 |
| O=C(O)c1nccc2c1OB(O)[C@H]1C[C@@H]21 | 20 | 20 | 10 | 5 | – | 1.25 | – | – | – | 20 | 10 | 5 | 20 | 10 | 10 | 5 | > 20 |
| COc1ccc2c(c1C(=O)O)OB(O)[C@@H](CCO)C2 | 10 | 20 | 20 | > 20 | – | 5 | – | – | – | 2.5 | 20 | > 20 | 2.5 | 20 | 10 | 10 | > 20 |
| O=C(CSC1CNC1)N[C@H]1Cc2cccc(C(=O)O)c2OB1O | – | – | – | – | – | – | 2.5 | 2.5 | 1 | – | – | – | – | – | – | – | – |
